# The source made the active and inactive calls. The calls are words filed in the database; no cut-off is given here.
# How the values were obtained:
# [1] = tested on: Mycobacterium tuberculosis; assay: Antimycobacterial activity against Mycobacterium tuberculosis H37Ra assessed as growth inhibition at 5 ug/ml preincubated for 1 hr followed by radiolabeling with [14C]-uracil, [14C]-methionine for 24 hrs; type: functional, organism-based
# [2] = tested on: Mycobacterium tuberculosis; assay: Inhibition of proteosynthesis in Mycobacterium tuberculosis H37Ra assessed as reduction of [14C]-methionine incorporation at 5 ug/ml preincubated for 1 hr followed by radiolabeling with [14C]-methionine for 24 hrs by scintillation spectrometry; type: functional, organism-based
# [3] = tested on: Mycobacterium tuberculosis; assay: Inhibition of RNA biosynthesis in Mycobacterium tuberculosis H37Ra assessed as reduction of [14C]-uracil incorporation at 5 ug/ml preincubated for 1 hr followed by radiolabeling with [14C]-uracil for 24 hrs by scintillation spectrometry; type: functional, organism-based
# [4] = tested on: Mycobacterium tuberculosis; assay: Antimycobacterial activity against Mycobacterium tuberculosis CNCTC My 331/88 after 14 days by microdilution method; type: functional; conditions: CNCTC My 331/88, 336 h
# [5] = tested on: Mycobacterium avium; assay: Antimycobacterial activity against Mycobacterium avium CNCTC My 330/88 after 14 days by microdilution method; type: functional; conditions: CNCTC My 330/88, 336 h
# [6] = tested on: Mycobacterium kansasii; assay: Antimycobacterial activity against Mycobacterium kansasii CNCTC My 235/80 after 14 days by microdilution method; type: functional; conditions: CNCTC My 235/80, 336 h
# [7] = tested on: Mycobacterium kansasii; assay: Antimycobacterial activity against Mycobacterium kansasii CNCTC My 6509/96 after 14 days by microdilution method; type: functional; conditions: CNCTC My 6509/96, 336 h
# [8] = tested on: Mycobacterium tuberculosis; assay: Antimycobacterial activity against Mycobacterium tuberculosis CNCTC My 331/88 after 21 days by microdilution method; type: functional; conditions: CNCTC My 331/88, 504 h
# [9] = tested on: Mycobacterium avium; assay: Antimycobacterial activity against Mycobacterium avium CNCTC My 330/88 after 21 days by microdilution method; type: functional; conditions: CNCTC My 330/88, 504 h
# [10] = tested on: Mycobacterium kansasii; assay: Antimycobacterial activity against Mycobacterium kansasii CNCTC My 235/80 after 21 days by microdilution method; type: functional; conditions: CNCTC My 235/80, 504 h
# [11] = tested on: Mycobacterium kansasii; assay: Antimycobacterial activity against Mycobacterium kansasii CNCTC My 6509/96 after 21 days by microdilution method; type: functional; conditions: CNCTC My 6509/96, 504 h
# [12] = tested on: Mycobacterium kansasii; assay: Antimycobacterial activity against Mycobacterium kansasii CNCTC My 235/80 after 7 days by microdilution method; type: functional; conditions: CNCTC My 235/80, 168 h
# [13] = tested on: Mycobacterium kansasii; assay: Antimycobacterial activity against Mycobacterium kansasii CNCTC My 6509/96 after 7 days by microdilution method; type: functional; conditions: CNCTC My 6509/96, 168 h
# [14] = Cytotoxicity against human HuH7 cells assessed as cell viability after 24 hrs by MTS assay; type: cell-based; conditions: Huh-7, 24 h
# [15] = tested on: HeLa; assay: Cytotoxicity against human HeLa cells assessed as cell viability after 24 hrs by MTS assay; type: cell-based
# [16] = Cytotoxicity against MDCK2-MDR1 cells assessed as cell viability after 24 hrs by MTS assay; type: ADME, cell-based; conditions: Canis lupus familiaris, MDCK-II
# [17] = Cytotoxicity against human HuH7 cells assessed as cell viability at 20 uM after 24 hrs by MTS assay; type: cell-based, Huh-7; conditions: read-out: Activity
# [18] = Cytotoxicity against human HuH7 cells assessed as cell viability at 20 uM after 48 hrs by MTS assay; type: cell-based, Huh-7; conditions: read-out: Activity
# [19] = Cytotoxicity against human HeLa cells assessed as cell viability at 20 uM after 24 hrs by MTS assay; type: cell-based; conditions: read-out: Activity
# [20] = Cytotoxicity against human HeLa cells assessed as cell viability at 20 uM after 48 hrs by MTS assay; type: cell-based; conditions: read-out: Activity
# [21] = Cytotoxicity against MDCK2-MDR1 cells assessed as cell viability at 20 uM after 24 hrs by MTS assay; type: ADME, cell-based, Canis lupus familiaris, MDCK-II; conditions: dog, read-out: Activity
# [22] = Cytotoxicity against MDCK2-MDR1 cells assessed as cell viability at 20 uM after 48 hrs by MTS assay; type: ADME, cell-based, Canis lupus familiaris, MDCK-II; conditions: dog, read-out: Activity
# [23] = tested on: Hepatocyte; assay: Cytotoxicity against primary human hepatocytes assessed as cell viability after 48 hrs by MTS assay; type: cell-based
# [24] = Cytotoxicity against primary human hepatocytes assessed as cell viability at 20 uM after 48 hrs by MTS assay; type: cell-based, Hepatocyte; conditions: read-out: Activity
# [25] = tested on: Candida albicans; assay: Antifungal activity against Candida albicans ATCC 44859 after 24 to 48 hrs by broth microdilution method; type: functional
# [26] = tested on: Candida tropicalis; assay: Antifungal activity against Candida tropicalis 156 after 24 to 48 hrs by broth microdilution method; type: functional
# [27] = tested on: Pichia kudriavzevii; assay: Antifungal activity against Candida krusei E28 after 24 to 48 hrs by broth microdilution method; type: functional
# [28] = tested on: Nakaseomyces glabratus; assay: Antifungal activity against Candida glabrata 20/I after 24 to 48 hrs by broth microdilution method; type: functional
# [29] = tested on: Trichosporon asahii; assay: Antifungal activity against Trichosporon asahii 1188 after 24 to 48 hrs by broth microdilution method; type: functional
# [30] = tested on: Aspergillus fumigatus; assay: Antifungal activity against Aspergillus fumigatus 231 after 24 to 48 hrs by broth microdilution method; type: functional
# [31] = tested on: Lichtheimia corymbifera; assay: Antifungal activity against Absidia corymbifera 272 after 24 to 48 hrs by broth microdilution method; type: functional
# [32] = tested on: Trichophyton mentagrophytes; assay: Antifungal activity against Trichophyton mentagrophytes 445 after 72 to 120 hrs by broth microdilution method; type: functional
# [33] = tested on: Staphylococcus aureus; assay: Antibacterial activity against Staphylococcus aureus ATCC 6538 after 24 to 48 hrs by broth microdilution method; type: functional
# [34] = tested on: Staphylococcus aureus; assay: Antibacterial activity against methicillin-resistant Staphylococcus aureus H 5996/08 after 24 to 48 hrs by broth microdilution method; type: functional
# [35] = tested on: Staphylococcus epidermidis; assay: Antibacterial activity against Staphylococcus epidermidis H 6966/08 after 24 to 48 hrs by broth microdilution method; type: functional
# [36] = tested on: Enterococcus faecalis; assay: Antibacterial activity against Enterococcus faecalis J 14365/08 after 24 to 48 hrs by broth microdilution method; type: functional
# [37] = tested on: Escherichia coli; assay: Antibacterial activity against Escherichia coli ATCC 8739 after 24 to 48 hrs by broth microdilution method; type: functional
# [38] = tested on: Klebsiella pneumoniae; assay: Antibacterial activity against Klebsiella pneumoniae D 11750/08 after 24 to 48 hrs by broth microdilution method; type: functional
# [39] = tested on: Klebsiella pneumoniae; assay: Antibacterial activity against ESBL producing Klebsiella pneumoniae J 14368/08 after 24 to 48 hrs by broth microdilution method; type: functional
# [40] = tested on: Pseudomonas aeruginosa; assay: Antibacterial activity against Pseudomonas aeruginosa ATCC 9027 after 24 to 48 hrs by broth microdilution method; type: functional
# [41] = tested on: Mycobacterium tuberculosis; assay: Antimycobacterial activity against Mycobacterium tuberculosis H37Rv after 7 days by HTS assay; type: functional; conditions: 168 h
# [42] = Cytotoxicity against human HuH7 cells assessed as cell viability after 48 hrs by MTS assay; type: cell-based; conditions: Huh-7, 48 h
# [43] = tested on: HeLa; assay: Cytotoxicity against human HeLa cells assessed as cell viability after 48 hrs by MTS assay; type: cell-based
# [44] = Cytotoxicity against MDCK2-MDR1 cells assessed as cell viability after 48 hrs by MTS assay; type: ADME, cell-based; conditions: Canis lupus familiaris, MDCK-II
# [45] = tested on: Salmonella typhimurium; assay: Mutagenic activity in Salmonella typhimurium TA98 assessed as reverse mutation at 30 uM by Ames test; type: toxicity, organism-based; conditions: salmonella enterica subsp. enterica serovar typhimurium
smiles,measurement,setting,value
NC[C@H]1O[C@H](O[C@H]2[C@H](O)[C@@H](O[C@H]3O[C@H](CO)[C@@H](O)[C@H](N)[C@H]3O)[C@H](N)C[C@@H]2N)[C@H](O)[C@@H](O)[C@@H]1O,growth inhibition (GI),[1],Active
same,inhibition,[2],Active
same,inhibition,[3],inactive
O=[N+]([O-])c1cc(CSc2nnc(-c3ccc(Cl)cc3Cl)o2)cc([N+](=O)[O-])c1,MIC99,[4],≤ 0.03 µM
same,MIC99,[5],16 µM
same,MIC99,[6],0.5 µM
same,MIC99,[7],0.25 µM
same,MIC99,[8],0.06 µM
same,MIC99,[9],32 µM
same,MIC99,[10],0.5 µM
same,MIC99,[11],0.5 µM
same,MIC99,[12],0.125 µM
same,MIC99,[13],0.125 µM
same,IC50,[14],> 20 µM
same,IC50,[15],> 20 µM
same,IC50,[16],> 20 µM
same,"viability at 24 h, 20 µM",[17],95.7%
same,"viability at 48 h, 20 µM",[18],37.7%
same,"viability at 24 h, 20 µM",[19],76.4%
same,"viability at 48 h, 20 µM",[20],39.9%
same,"viability at 24 h, 20 µM",[21],106%
same,"viability at 48 h, 20 µM",[22],27.9%
same,IC50,[23],> 20 µM
same,"viability at 48 h, 20 µM",[24],81.1%
same,MIC80,[25],> 125 µM
same,MIC80,[26],> 125 µM
same,MIC80,[27],> 125 µM
same,MIC80,[28],> 125 µM
same,MIC80,[29],> 125 µM
same,MIC50,[30],> 125 µM
same,MIC50,[31],> 125 µM
same,MIC50,[32],> 125 µM
same,MIC95,[33],> 125 µM
same,MIC95,[34],> 125 µM
same,MIC95,[35],> 125 µM
same,MIC95,[36],> 125 µM
same,MIC95,[37],> 125 µM
same,MIC95,[38],> 125 µM
same,MIC95,[39],> 125 µM
same,MIC95,[40],> 125 µM
COC(=O)CSc1nnc(-c2ccc(C(C)(C)C)cc2)s1,IC90,[41],0.62 µM
COc1ccc(-c2nnc(SCC(=O)NCCc3ccccc3)o2)cc1,IC90,[41],0.38 µM
O=[N+]([O-])c1ccc(CSc2nnc(-c3ccccc3)o2)c([N+](=O)[O-])c1,MIC99,[4],2 µM
same,MIC99,[5],> 16 µM
same,MIC99,[6],8 µM
same,MIC99,[7],8 µM
same,MIC99,[8],4 µM
same,MIC99,[9],> 16 µM
same,MIC99,[10],16 µM
same,MIC99,[11],8 µM
same,MIC99,[12],4 µM
same,MIC99,[13],2 µM
same,IC50,[14],> 20 µM
same,IC50,[42],> 20 µM
same,IC50,[15],> 20 µM
same,IC50,[43],> 20 µM
same,IC50,[16],> 20 µM
same,IC50,[44],> 20 µM
same,"viability at 24 h, 20 µM",[17],99.5%
same,"viability at 48 h, 20 µM",[18],92.8%
same,"viability at 24 h, 20 µM",[19],97.7%
same,"viability at 48 h, 20 µM",[20],113%
same,"viability at 24 h, 20 µM",[21],69.6%
same,"viability at 48 h, 20 µM",[22],73.3%
same,Activity,[45],Toxic
same,MIC80,[25],> 125 µM
same,MIC80,[26],> 125 µM
same,MIC80,[27],> 125 µM
same,MIC80,[28],> 125 µM
same,MIC80,[29],> 125 µM
same,MIC50,[30],> 125 µM
same,MIC50,[31],> 125 µM
same,MIC50,[32],> 125 µM
same,MIC95,[33],> 125 µM
same,MIC95,[34],> 125 µM
same,MIC95,[35],> 125 µM
same,MIC95,[36],> 125 µM
same,MIC95,[37],> 125 µM
same,MIC95,[38],> 125 µM
same,MIC95,[39],> 125 µM
same,MIC95,[40],> 125 µM

# — ChEMBL document CHEMBL3797190, “Development of 3,5-Dinitrobenzylsulfanyl-1,3,4-oxadiazoles and Thiadiazoles as Selective Antitubercular Agents Active Against Replicating and Nonreplicating Mycobacterium tuberculosis” (J Med Chem, 2016)
